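Grown in 96-well plates, cells were treated for 48 hours with each compound at five concentrations. Insufficient inhibition: endpoint recorded as highest concentration tested. GI50 is the concentration that inhibits growth by half. The concentration for full growth arrest is given as TGI.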
How the values were obtained:
Test in all cases: NCI anticancer screen, dose series, 48 h
HT29 colon = system: HT29 colon
HOP-62 NSCLC = system: HOP-62 NSCLC
HS 578T breast = system: HS 578T breast
HOP-92 NSCLC = system: HOP-92 NSCLC
HCT-116 colon = system: HCT-116 colon
OVCAR-8 ovarian = system: OVCAR-8 ovarian
T-47D breast = system: T-47D breast
NCI-H23 lung = system: NCI-H23 lung
ACHN renal = system: ACHN renal
SK-OV-3 ovarian = system: SK-OV-3 ovarian
SF-268 CNS = system: SF-268 CNS
OVCAR-4 ovarian = system: OVCAR-4 ovarian
MDA-MB-231 breast = system: MDA-MB-231 breast
NCI/ADR-RES ovarian = system: NCI/ADR-RES ovarian
TK-10 renal = system: TK-10 renal
SF-295 CNS = system: SF-295 CNS
OVCAR-5 ovarian = system: OVCAR-5 ovarian
MDA-MB-435 = system: MDA-MB-435
SNB-75 CNS = system: SNB-75 CNS
SNB-19 CNS = system: SNB-19 CNS
KM12 colon = system: KM12 colon
786-0 renal = system: 786-0 renal
CAKI-1 renal = system: CAKI-1 renal
RPMI-8226 leukemia = system: RPMI-8226 leukemia
MALME-3M melanoma = system: MALME-3M melanoma
HCT-15 colon = system: HCT-15 colon
M14 melanoma = system: M14 melanoma
NCI-H460 lung = system: NCI-H460 lung
UO-31 renal = system: UO-31 renal
OVCAR-3 ovarian = system: OVCAR-3 ovarian
SK-MEL-2 melanoma = system: SK-MEL-2 melanoma
HCC-2998 colon = system: HCC-2998 colon
DU-145 prostate = system: DU-145 prostate
SW-620 colon = system: SW-620 colon
COLO 205 colon = system: COLO 205 colon
PC-3 prostate = system: PC-3 prostate
MCF7 breast = system: MCF7 breast
MOLT-4 leukemia = system: MOLT-4 leukemia
RXF 393 renal = system: RXF 393 renal
UACC-257 melanoma = system: UACC-257 melanoma
IGROV1 ovarian = system: IGROV1 ovarian
K-562 leukemia = system: K-562 leukemia

CNc1ccc(C(=O)CC(O)CCC(C)C2OC(=O)CC(O)CC(=O)CC(O)CC(O)CC(O)CC(O)CC3(O)CC(O)C(C(=O)NCCN(C)C)C(CC(OC4OC(C)C(O)C(NC(=O)CN5CCN(CCO)CC5)C4O)/C=C/C=C/C=C/C=C\C=C/C=C/C=C/C2C)O3)cc1 (configuration not stated)
GI50 (HT29 colon): 931 nM
TGI (HT29 colon): > 11600 nM
GI50 (HOP-62 NSCLC): 1170 nM
TGI (HOP-62 NSCLC): 6210 nM
GI50 (HS 578T breast): > 50000 nM
TGI (HS 578T breast): > 50000 nM
TGI (HOP-92 NSCLC): > 50000 nM
GI50 (HCT-116 colon): 546 nM
TGI (HCT-116 colon): 2130 nM
GI50 (OVCAR-8 ovarian): 2500 nM
TGI (OVCAR-8 ovarian): > 50000 nM
GI50 (T-47D breast): 1080 nM
TGI (T-47D breast): > 50000 nM
GI50 (NCI-H23 lung): 14800 nM
TGI (NCI-H23 lung): 47300 nM
GI50 (ACHN renal): 1120 nM
TGI (ACHN renal): 2440 nM
GI50 (SK-OV-3 ovarian): 2380 nM
TGI (SK-OV-3 ovarian): > 50000 nM
GI50 (SF-268 CNS): 193 nM
TGI (SF-268 CNS): > 50000 nM
GI50 (OVCAR-4 ovarian): 1650 nM
TGI (OVCAR-4 ovarian): > 17400 nM
GI50 (MDA-MB-231 breast): 832 nM
TGI (MDA-MB-231 breast): 2910 nM
GI50 (NCI/ADR-RES ovarian): 2070 nM
TGI (NCI/ADR-RES ovarian): 14200 nM
GI50 (TK-10 renal): 143 nM
GI50 (SF-295 CNS): 706 nM
TGI (SF-295 CNS): 1640 nM
GI50 (OVCAR-5 ovarian): 3590 nM
TGI (OVCAR-5 ovarian): > 30600 nM
GI50 (MDA-MB-435): 692 nM
TGI (MDA-MB-435): 1910 nM
GI50 (SNB-75 CNS): > 22300 nM
TGI (SNB-75 CNS): > 50000 nM
GI50 (SNB-19 CNS): 1620 nM
TGI (SNB-19 CNS): > 50000 nM
GI50 (KM12 colon): 165 nM
TGI (KM12 colon): 490 nM
GI50 (786-0 renal): 197 nM
TGI (786-0 renal): > 50000 nM
GI50 (CAKI-1 renal): 192 nM
TGI (CAKI-1 renal): > 18700 nM
GI50 (RPMI-8226 leukemia): > 50000 nM
TGI (RPMI-8226 leukemia): > 50000 nM
GI50 (MALME-3M melanoma): 96.6 nM
TGI (MALME-3M melanoma): 300 nM
GI50 (HCT-15 colon): 2920 nM
TGI (HCT-15 colon): > 50000 nM
GI50 (M14 melanoma): 494 nM
TGI (M14 melanoma): 1510 nM
GI50 (NCI-H460 lung): 242 nM
TGI (NCI-H460 lung): 1740 nM
GI50 (UO-31 renal): 2170 nM
TGI (UO-31 renal): > 50000 nM
GI50 (OVCAR-3 ovarian): 768 nM
TGI (OVCAR-3 ovarian): 3030 nM
GI50 (SK-MEL-2 melanoma): 19900 nM
TGI (SK-MEL-2 melanoma): > 50000 nM
GI50 (HCC-2998 colon): 1910 nM
TGI (HCC-2998 colon): 4260 nM
GI50 (DU-145 prostate): 161 nM
TGI (DU-145 prostate): 610 nM
GI50 (SW-620 colon): 728 nM
TGI (SW-620 colon): > 50000 nM
GI50 (COLO 205 colon): 508 nM
TGI (COLO 205 colon): 1810 nM
GI50 (PC-3 prostate): 296 nM
TGI (PC-3 prostate): > 50000 nM
GI50 (MCF7 breast): 219 nM
TGI (MCF7 breast): > 50000 nM
GI50 (MOLT-4 leukemia): 424 nM
TGI (MOLT-4 leukemia): > 21400 nM
GI50 (RXF 393 renal): > 50000 nM
TGI (RXF 393 renal): > 50000 nM
GI50 (UACC-257 melanoma): 935 nM
TGI (UACC-257 melanoma): 2790 nM
GI50 (IGROV1 ovarian): > 50000 nM
TGI (IGROV1 ovarian): > 50000 nM
GI50 (K-562 leukemia): 163 nM
TGI (K-562 leukemia): 1350 nM

— PubChem BioAssay (NCI)
